Measurements as given in patent publication US6706509B2, “Oncoprotein protein kinase” (The Regents of the University of California, priority 1993, dated 2004).

Test system: JNK1
Experiment: Epitope-tagged JNK1 protein kinase activity in transfected COS cells
Type: cell-based
Details: 10 nM EGF or 100 nM TPA
Procedure: JNK1 protein kinase activity was detected in the immune-complex. Immunecomplex kinase assays using either M2 immunoprecipitates or purified JNK1, JNK-46, and ERK1 or ERK2 were performed at 30° C. for 20 mins using 3 μg of substrate, 20 μM ATP and 5 μCi of [γ-^32P]ATP in 30 μl of kinase buffer (25 mM Hepes (pH 7.6), 20 mM MgCl2, 20 mM β-glycerophosphate, 20 mM p-nitrophenyl phosphate, 0.1 mM Na orthovanadate, 2 mM DTT). The reactions were terminated with Laemmli sample buffer and the products were resolved by SDS-PAGE (12% gel). JNK1 protein activity was also measured after SDS-PAGE by the in-gel kinase assay with the substrate GST-cJun(1-79) as described by Hibi, et al., supra, (1993). Solid-phase protein kinase assays were performed as described by Hibi, et al., supra, (1993). Clarified cell extracts were incubated with GST fusion proteins immobilized on GSH-agarose beads. After 3 hours at 4° C., the beads were washed extensively and bound JNK1 was detected by the addition of [γ-^32P]ATP. The reaction was terminated after 10 mins at 30° C. and the products were resolved by SDS-PAGE. The incorporation of [^32P]phosphate was visualized by autoradiography and quantitated with a phosphorimager and ImageQuant software (Molecular Dynamics Inc., Sunnyvale, Calif.). The methods used for phosphopeptide mapping (Boyle, et al., Cell 64:573-584, 1991) and phosphoamino acid analysis (Alvarez, et al., J. Biol. Chem 266:15227-15285, 1991) were described previously.
Epitope-tagged JNK1 was expressed in COS cells. Control experiments were performed using mock-transfected cells. After 48 hours, the cells were treated either without or with 100 nM TPA, 10 nM EGF, or 80 J/m^2 UV-C and incubated for 1 hr. The cells were lysed in RIPA buffer and the JNK1 proteins were isolated by immunoprecipitation with the M2 monoclonal antibody. JNK1 protein kinase activity was measured after SDS-PAGE using an in-gel kinase assay with the substrate GST-cJun(1-79) polymerized into the gel.
COS-1 cells were maintained in. Dulbecco's modified Eagle's medium supplemented with 5% […] (Gibco-BRL). Metabolic labeling with [^32P]phosphate was performed by incubation of cells in phosphate-free modified Eagle's medium (Flow Laboratories Inc.) supplemented with 0.1% fetal bovine serum and 1 mCi/ml [^32P]orthophosphate (Dupont-NEN). COS cells were treated with 10 nM EGF or 100 nM thorbol myristate acetate. The cells were then incubated for defined times at 37° C. prior to harvesting and measurement of JNK1 protein kinase activity. The data are presented as arbitrary units. […] In contrast, exposure to UV radiation caused a marked increase in JNK1 activity.

“EGF: EGF, used at 10 nM to treat COS cells (NSDSECPLSHDGYCLHDGVCMYIEALDKYACNCVVGYIGERCQYRDLKWWELR; UniProt P01133 971-1023, looked up)” was tested. Which JNK1 activation did it give?
The JNK1 activation was “low level of JNK1 activation”.

What about the “duration of JNK1 activation” value of the same substance?
Its value is “approximately 2 hours”.
